Results taken from PubChem BioAssay AID602421 (The Scripps Research Institute Molecular Screening Center, 2012).
“And” between values parts separate entries of the source, which are not always exact repeats. Equal entries are not always repeated. The source made the active and inactive calls. No rule for the calls is given here.

Biological target: AddAB helicase-nuclease (Helicobacter pylori 26695)
Test: AddAB nuclease inhibitors, potency, late-stage follow-up, biochemical, radioactivity, purified enzyme, IC50 (AID 602421)
Settings: radioactive DNA degradation

SMILES	IC50
O=C(Nc1cccc(NC(=O)c2ccccc2Cl)c1)c1ccc([N+](=O)[O-])o1	> 100 µM (inactive)
Cc1ccc2nc(/C(C#N)=C\c3ccc([N+](=O)[O-])o3)[nH]c2c1	> 166 µM (inactive)
N#Cc1c(NC(=O)c2ccccc2)sc2c1CCC2	> 100 µM (inactive)
N#Cc1c(NC(=O)c2ccc([N+](=O)[O-])o2)sc2c1CCC2	96 µM
CCn1cc(C(=O)O)c(=O)c2cnc(N3CCN(C(=S)NC(=O)c4cccc(C)c4)CC3)nc21	inactive
CCn1cc(C(=O)O)c(=O)c2cnc(N3CCN(C(=S)Nc4ccccc4C(F)(F)F)CC3)nc21	34 µM and > 100 µM (inactive)
N#Cc1c(NC(=O)c2ccc(-c3ccccc3[N+](=O)[O-])o2)sc2c1CCCC2	> 100 µM (inactive)
CCn1cc(C(=O)O)c(=O)c2cnc(N3CCN(C(=S)Nc4cccc(C(F)(F)F)c4)CC3)nc21	27 µM
CCn1cc(C(=O)O)c(=O)c2cc(F)c(N3CCN(C(=S)Nc4cccc(C(F)(F)F)c4)CC3)cc21	11 µM
O=C(Nc1ncccn1)c1ccc([N+](=O)[O-])o1	> 100 µM (inactive)
O=C(OCC(=O)c1cccs1)c1ccc([N+](=O)[O-])o1	> 100 µM (inactive)
O=C(Nc1ccc(N2CCOCC2)cc1)c1ccc([N+](=O)[O-])o1	> 100 µM (inactive)
N#Cc1c(NC(=O)c2cccc(F)c2)sc2c1CCCC2	> 100 µM (inactive)
Cc1cccnc1NC(=O)c1ccc([N+](=O)[O-])o1	> 166 µM (inactive)
N#Cc1c(NC(=O)c2ccc([N+](=O)[O-])o2)sc2c1CCCC2	> 100 µM (inactive)
CCn1cc(C(=O)O)c(=O)c2cc(F)c(N3CCN(C(=S)Nc4ccccc4C(F)(F)F)CC3)cc21	79 µM
C=CCn1c(Sc2ncc([N+](=O)[O-])s2)n[nH]c1=O	93 µM
Cc1sc(NC(=O)c2ccc(Br)o2)c(C#N)c1C	25 µM
Cc1ccc(C(=O)Nc2sc3c(c2C#N)CCCCC3)o1	> 100 µM (inactive)
COC(=O)c1c(-c2ccccc2)csc1NC(=O)c1cnccn1	11 µM
N#Cc1c(NC(=O)c2ccco2)sc2c1CCC2	36 µM
O=C(NCc1cccnc1)c1ccc([N+](=O)[O-])o1	> 100 µM (inactive)
CNC(=O)c1c(NC(=O)c2nc(SCc3ccccc3)ncc2Cl)sc2c1CCCC2	55 µM
NC(=O)c1ccsc1NC(=O)COC(=O)c1ccc([N+](=O)[O-])o1	> 100 µM (inactive)
CC1(C)Cc2c(sc(NC(=O)c3ccco3)c2C#N)CO1	> 100 µM (inactive)
N#Cc1c(NC(=O)c2ccccc2C(=O)O)sc2c1CCCC2	> 100 µM (inactive)
CCn1cc(C(=O)O)c(=O)c2cnc(N3CCN(C(=S)NCc4ccccc4)CC3)nc21	inactive
N#Cc1c(NC(=O)c2cnccn2)sc2c1CCCC2	17 µM
